Measured values published in patent US10370438B2, “Histamine-releasing factor (HRF), HRF-receptor and methods of modulating inflammation” (LA JOLLA INSTITUTE FOR ALLERGY AND IMMUNOLOGY, priority 2010, dated 2019).
Entries after “also recorded” stand apart in the source; their conditions may differ.

What was measured:
[1] = tested on: HRF/IgE binding; test: Competition ELISA of IgE binding to GST-mHRF-coated wells; set-up: species or system mouse
Experimental: (§1) To identify an inhibitor of HRF/Ig interactions to dissect the extracellular function (═HRF function as a cytokine) separate from the intracellular functions in vivo settings, the major Ig-interacting HRF sequence was studied as a specific inhibitor of HRF/Ig interactions. IgE molecules were incubated in GST-mHRF-coated wells in the presence or absence (−) of the indicated concentrations of competitors, GST-N19, GST-mHRF or mHRF-His6 for 2 hours. After incubation, bound-IgE was detected by incubation with biotinylated anti-mouse IgE mAb, followed by streptavidin-HRP. […] By contrast, none of the shorter mHRF peptides tested (residues 1-6, 1-12, 5-19, and 9-19) inhibited HRF/IgE binding. GST-N19 inhibited HRF/IgG binding as well.

[2] = tested on: HRF/IgG binding; test: Inhibition of HRF/IgG binding; set-up: species or system mouse
Experimental: as §1

[3] = tested on: CHO-K1 (Chinese hamster ovary cell); settings: CHO-K1, 3.6 or 36 μM, 2 days
Experimental: (§2) To analyze the effect of GST-N19 on intracellular functions of HRF/TCTP, the indicated cells were cultured in the absence (−) or presence of the indicated concentrations of GST or GST-N19 for 2 days, and live cells were counted in the presence of Trypan blue. […] The usual dose of HRF to stimulate basophils is 1.6-5 μM (Langdon, et al., J Leukoc Biol 84, 1151 (October, 2008)). Apoptosis was induced by growth factor withdrawal, IL-3 depletion, in BMMCs for 3 days and by 800 nM H2O2 in CHO-K1 cells for 2 days, and live cells were counted.

[4] = tested on: CHO-K1 cells; settings: 800 nM H2O2, 2 days
Experimental: as §2

[5] = tested on: BMMCs; format: cell-based, mouse
[6] = tested on: WT mice; test: IgE/antigen-induced PCA with GST-N19 ear injection; format: in vivo, mouse
Experimental: Mouse ears were first sensitized with 0.5 μg anti-TNP (C38-2 in the right ear and C48-2 in the left ear) IgE. After 24 hours, Evans' blue dye was intravenously (i.v.) injected, and TNP26-BSA (Ag: 0.1 μg) or mHRF-His6 (10 μg) were immediately injected into the ears. The acute (30 minute) reactions were analyzed by measurement of Evans' blue dye leakage. The ear thickness was measured using a micrometer (Mitutoyo) at 0.5, 1, 2, 4, 6, 8, 12, and 24 hours after mHRF-His6challenge. As a negative control, saline was injected into the ears in place of antigen or HRF challenge. IgG-mediated response was performed by sensitization with 2 μg IgG1 (in place of anti-TNP IgE) and challenge with anti-mouse IgG1 Ab (0.6 μg: Southern Biotechnology, in place of TNP26-BSA). Engraftmanet of Kit^W-sh/W-sh mice with BMMCs was performed 6 weeks before study (Nakano, T., et al. J Exp Med 162:1025-1043 (1985)). In some studies, mice were sensitized and stimulated as described above but without Evans blue.
To study HRFs involvement in IgE/antigen-induced PCA reactions, WT mice were overnight sensitized the IgE. Left ears were injected with GST and the right ears were injected with GST-N19, and then TNP26-BSA were injected in both ears. Ear thickness was measured over a 10 hour period. *, **, ***: p<0.05, p<0.01, p<0.001 by Student's t-test. […]

[7] = tested on: C57BL/6 mice; test: OVA-induced mast cell-dependent airway inflammation model; format: in vivo, mouse
Experimental: Mice were sensitized with OVA (10 μg in 0.1 ml saline) at days 0, 7, 14, 21, 28, and 35. Sensitized mice were challenged with OVA (20 μg in 20 μl saline) at days 40, 43 and 46. Some mice were pretreated with GST, GST-N19 (400 μg in PBS), or N19 peptide (40 μg in 2% DMSO-containing PBS) 15 minutes before OVA challenge. Twenty-four hours after the last challenge, lung function in response to methacholine was tested using FlexiVent system (SCIREQ Scientific Respiratory Equipment). Mice were sacrificed and plasma, BAL fluids, and lung tissues were collected. Cells in BAL fluids were counted, and specific cell numbers were calculated after May-Giemsa staining of Cytospin preparations. Immunofluorescence microscopy was performed on membrane-permeabilized and non-permeabilized lung tissues. For staining of lung tissues by staining of H&E and periodic acid-Schiff (PAS), lung tissues were fixed with formalin and embedded in paraffin. For measurement of cytokine levels in lung tissues, lung homogenates were prepared (Oyoshi et al., Immunol. 120:303 (2007)) and cytokines quantified by ELISA. HRF in lung homogenates and plasma was SDS-PAGE and immunoblotting with anti-HRF Ab (Santa Cruz Biotechnology).
Asthma is a type 2 helper T cell-driven, chronic inflammatory lung disease (Wills-Karp, Annu Rev Immunol 17, 255 (1999)). To study HRF involvement in allergic airway inflammation, an airway inflammation model was utilized, in which mast cells are implicated in amplifying antigen-dependent chronic inflammation (Williams, et al., J Exp Med 192, 455 (Aug. 7, 2000)). C57BL/6 mice were first sensitized with OVA (10 μg) at days 0, 7, 14, 21, 28 and 35. At days 40, 43 and 46, mice were intranasally challenged with OVA (20 μg) or PBS. Some mice were intranasally pretreated with GST or GST-N19 (400 μg) before every OVA challenge. Twenty-four hours after the last challenge, mice were sacrificed and BAL fluids and lung tissues were collected. Lung tissues were homogenized.

[8] = tested on: mice; test: T cell-dependent/mast cell-independent airway inflammation model (OVA with alum); format: in vivo, mouse; settings: mice immunized with OVA with alum and challenged with OVA

GST-N19: GST fusion protein encoding the first 19 residues of mHRF; inhibitor of HRF/Ig interactions
Potency of inhibition of IgE binding relative to full-length HRF competitors [1]: potency similar to that shown by GST-mHRF and mHRF-His6
Inhibition of IgE binding to immobilized GST-mHRF ([1]; competitor incubated 2 hours): inhibited
Inhibition of HRF/IgG binding [2]: inhibited
Viability or proliferation [3]: did not affect
Live cells after induced apoptosis [4]: not affected
Effects on mast cell growth and apoptosis [5]: absence of GST-N19 effects
PCA (ear thickness) ([6]; HRF-nonreactive IgE-induced PCA): insensitive
Acute reactions and LPR (ear thickness) ([6]; HRF-reactive IgE-induced PCA, TNP26-BSA challenge): significantly reduced
Inflammatory cells, particularly eosinophils and neutrophils, in BAL fluids ([7]; 400 μg before every OVA challenge): reduced
Inflammatory cells and goblet cell hyperplasia in the lung ([7]; H&E and PAS staining): reduced
HRF in plasma ([7]; OVA-immunized/OVA-challenged mice): reduced
Airway inflammation ([7]; intranasal pretreatment before each OVA challenge): abrogated
Production of IL-5 in lung tissues ([7]; lung homogenates, ELISA): drastically decreased
Production of IL-13 in lung tissues ([7]; lung homogenates, ELISA): drastically decreased; also recorded: suppression
HRF-reactive IgG levels in plasma ([7]; mouse, in vivo): not affected
OVA-specific IgE levels in plasma ([7]; mouse, in vivo): not affected
OVA-specific IgG1 levels in plasma ([7]; mouse, in vivo): not affected
OVA-specific IgG2a levels in plasma ([7]; mouse, in vivo): not affected
Airway hyper-responsiveness (AHR) ([7]; response to methacholine): inhibited
Airway inflammation [8]: failed to inhibit; also recorded: does not inhibit
